Measured values as given in article PMC4965013, “Open Source Drug Discovery with the Malaria Box Compound Collection for Neglected Diseases and Beyond” (PLoS Pathogens, 2016).
Blank lines part the entries; values can stand above or below the compound they belong to.

What was measured:
P. falciparum = test: EC50 listed in S2 Table Metabolomics (used to set the concentration tested); type: cell-based; conditions: Plasmodium falciparum; EC50 used for Factor_XEC50 in metabolomics; read-out: EC50_nM
[1] = system: P. falciparum 3D7 trophozoites; test: Metabolomic fingerprint profiling LC-MS; type: cell-based, Plasmodium falciparum; parameters: UDP-D-glucose / ADP-D-glucose: unit not given here; conditions: for Acetyllysine / N-acetyl-L-ornithine / N-carbamoyl-L-aspartate / NADPH / dAMP / dCMP / dTDP / dTMP / dTTP / dihydroorotate / orotate / DLH / DLS/SDL/SID / PD / PEE / PVNF / 3-phosphoglycerate / ADP-D-glucose / ATP / CDP / D-sedoheptulose-1/7-phosphate / FAD / GMP / NAD+ / NADP+ / Octoluse Bisphosphate / Pyroglutamic acid / UDP-D-glucose / UDP-D-glucuronate / UDP-N-acetyl-glucosamine / UDP / UMP / UTP / a-ketoglutarate / citrate/isocitrate / cytidine / dATP / dGMP/AMP / fumarate / glucose-1/6-phosphate / glycerate / guanine / guanosine / hypoxanthine / indole / inosine / nicotinate / ornithine / phosphoenolpyruvate / pyruvate / ribose-phosphate / sarcosine/alanine / sn-glycerol-3-phosphate / succinate/methylmalonic acid / uridine / xanthosine: S2 Table Metabolomics; for Acetyllysine: metabolite Acetyllysine; for N-acetyl-L-ornithine: metabolite N-acetyl-L-ornithine; for N-carbamoyl-L-aspartate: metabolite N-carbamoyl-L-aspartate; for NADPH: metabolite NADPH; for dAMP: metabolite dAMP; for dCMP: metabolite dCMP; for dTDP: metabolite dTDP; for dTMP: metabolite dTMP; for dTTP: metabolite dTTP; for dihydroorotate: metabolite dihydroorotate; for orotate: metabolite orotate; for DLH: peptide DLH; for DLS/SDL/SID: peptide DLS/SDL/SID; for PD: peptide PD; for PEE: peptide PEE; for PVNF: peptide PVNF; for 3-phosphoglycerate: metabolite 3-phosphoglycerate; for ADP-D-glucose: metabolite ADP-D-glucose; for ATP: metabolite ATP; for CDP: metabolite CDP; for CDP / D-sedoheptulose-1/7-phosphate / GMP / Octoluse Bisphosphate / UDP / UMP / UTP / citrate/isocitrate / dGMP/AMP / fumarate / glucose-1/6-phosphate / glycerate / guanine / guanosine / inosine / pyruvate / sarcosine/alanine / succinate/methylmalonic acid / uridine / xanthosine: change in metabolite level after compound treatment; for D-sedoheptulose-1/7-phosphate: metabolite D-sedoheptulose-1/7-phosphate; for FAD: metabolite FAD; for GMP: metabolite GMP; for NAD+: metabolite NAD+; for NADP+: metabolite NADP+; for Octoluse Bisphosphate: metabolite Octoluse Bisphosphate; for Pyroglutamic acid: metabolite Pyroglutamic acid; for UDP-D-glucose: metabolite UDP-D-glucose; for UDP-D-glucuronate: metabolite UDP-D-glucuronate; for UDP-N-acetyl-glucosamine: metabolite UDP-N-acetyl-glucosamine; for UDP: metabolite UDP; for UMP: metabolite UMP; for UTP: metabolite UTP; for a-ketoglutarate: metabolite a-ketoglutarate; for citrate/isocitrate: metabolite citrate/isocitrate; for cytidine: metabolite cytidine; for dATP: metabolite dATP; for dGMP/AMP: metabolite dGMP/AMP; for fumarate: metabolite fumarate; for glucose-1/6-phosphate: metabolite glucose-1/6-phosphate; for glycerate: metabolite glycerate; for guanine: metabolite guanine; for guanosine: metabolite guanosine; for hypoxanthine: metabolite hypoxanthine; for indole: metabolite indole; for inosine: metabolite inosine; for 2_3-Diphosphoglyceric acid / 4-phosphopantothenate / 6-phospho-D-gluconate / FMN / IMP / Pyrophosphate / Sedoheptoluse bisphosphate / cyclic-AMP / glutathione disulfide / lactate / myo-inositol: metabolite level change after treatment; for nicotinate: metabolite nicotinate; for ornithine: metabolite ornithine; for phosphoenolpyruvate: metabolite phosphoenolpyruvate; for pyruvate: metabolite pyruvate; for ribose-phosphate: metabolite ribose-phosphate; for sarcosine/alanine: metabolite sarcosine/alanine; for sn-glycerol-3-phosphate: metabolite sn-glycerol-3-phosphate; for succinate/methylmalonic acid: metabolite succinate/methylmalonic acid; for uridine: metabolite uridine; for xanthosine: metabolite xanthosine

EC50 (P. falciparum): 283 nM
Structure (SMILES): COc1ccc2c(c1)OC(O)(C(F)(F)C(F)(F)F)CC2=O (stereo not drawn) [MMV007839]
Acetyllysine [1]: -0.1495
N-acetyl-L-ornithine [1]: -0.3633
N-carbamoyl-L-aspartate [1]: -1.795
NADPH [1]: -0.4001
dAMP [1]: -1.537
dCMP [1]: -0.8612
dTDP [1]: -1.865
dTMP [1]: -1.855
dTTP [1]: -0.1915
dihydroorotate [1]: -1.4167
orotate [1]: -2.224
DLH [1]: -0.6186
DLS/SDL/SID [1]: -1.11
PD [1]: 0.5838
PEE [1]: -0.1635
PVNF [1]: -0.3342
3-phosphoglycerate [1]: 0.9102
ADP-D-glucose [1]: -0.2
ATP [1]: -0.07659
CDP [1]: -1.957
D-sedoheptulose-1/7-phosphate [1]: -0.1553
FAD [1]: -0.4884
GMP [1]: -0.7332
NAD+ [1]: -0.1711
NADP+ [1]: -0.2719
Octoluse Bisphosphate [1]: 0.7306
Pyroglutamic acid [1]: 0.1304
UDP-D-glucose [1]: -0.2042
UDP-D-glucuronate [1]: -0.2026
UDP-N-acetyl-glucosamine [1]: -0.2915
UDP [1]: -2.077
UMP [1]: -0.8849
UTP [1]: -0.5295
a-ketoglutarate [1]: -0.1816
citrate/isocitrate [1]: 0.3799
cytidine [1]: 0.004906
dATP [1]: -0.1041
dGMP/AMP [1]: -1.779
fumarate [1]: -0.2064
glucose-1/6-phosphate [1]: -0.5084
glycerate [1]: 3.453
guanine [1]: -0.7539
guanosine [1]: -0.466
hypoxanthine [1]: 0.3062
indole [1]: 0.0845
inosine [1]: 0.6443
2_3-Diphosphoglyceric acid [1]: 0.2433
4-phosphopantothenate [1]: -0.5485
6-phospho-D-gluconate [1]: 0.05032
FMN [1]: -0.6664
IMP [1]: -0.6059
Pyrophosphate [1]: 0.1105
Sedoheptoluse bisphosphate [1]: 0.5834
cyclic-AMP [1]: -1.0489
glutathione disulfide [1]: -0.5477
lactate [1]: 0.3101
myo-inositol [1]: 0.232
nicotinate [1]: 0.1131
ornithine [1]: 0.4692
phosphoenolpyruvate [1]: 1.103
pyruvate [1]: 2.0227
ribose-phosphate [1]: 0.6152
sarcosine/alanine [1]: 0.4418
sn-glycerol-3-phosphate [1]: 0.2795
succinate/methylmalonic acid [1]: -0.36
uridine [1]: -0.244
xanthosine [1]: -0.1676

EC50 (P. falciparum): 106 nM
Structure (SMILES): CCCCCCOC(=O)C1=C(C)NC(=O)NC1c1ccccc1F (stereo not drawn) [MMV007686]
Acetyllysine [1]: -0.6021
N-acetyl-L-ornithine [1]: -0.5247
N-carbamoyl-L-aspartate [1]: -0.1545
NADPH [1]: -0.6448
dAMP [1]: -0.475
dCMP [1]: 0.2166
dTDP [1]: -0.8182
dTMP [1]: -0.71
dTTP [1]: -0.2978
dihydroorotate [1]: 0.04156
orotate [1]: 0.1913
DLH [1]: 0.3631
DLS/SDL/SID [1]: 0.06173
PD [1]: -0.2456
PEE [1]: -0.1279
PVNF [1]: 0.4591
3-phosphoglycerate [1]: 0.4561
ADP-D-glucose [1]: 0.08489
ATP [1]: -0.09097
CDP [1]: -1.124
D-sedoheptulose-1/7-phosphate [1]: -0.6707
FAD [1]: -0.2456
GMP [1]: 0.9608
NAD+ [1]: -0.04958
NADP+ [1]: -0.001559
Octoluse Bisphosphate [1]: -0.1324
Pyroglutamic acid [1]: 0.9271
UDP-D-glucose [1]: -0.1029
UDP-D-glucuronate [1]: -0.1902
UDP-N-acetyl-glucosamine [1]: -0.1743
UDP [1]: -1.121
UMP [1]: 0.7368
UTP [1]: -0.5193
a-ketoglutarate [1]: 0.8749
citrate/isocitrate [1]: 0.6672
cytidine [1]: 0.271
dATP [1]: -0.2157
dGMP/AMP [1]: -0.5696
fumarate [1]: 0.5304
glucose-1/6-phosphate [1]: -0.0799
glycerate [1]: 0.5979
guanine [1]: -0.1143
guanosine [1]: -0.2083
hypoxanthine [1]: 0.8142
indole [1]: 0.4434
inosine [1]: 0.6048
2_3-Diphosphoglyceric acid [1]: -0.3849
4-phosphopantothenate [1]: -0.1203
6-phospho-D-gluconate [1]: -0.2727
FMN [1]: -0.1451
IMP [1]: -0.1074
Pyrophosphate [1]: -0.313
Sedoheptoluse bisphosphate [1]: -0.1202
cyclic-AMP [1]: -0.174
glutathione disulfide [1]: -0.2538
lactate [1]: 0.3995
myo-inositol [1]: 0.04912
nicotinate [1]: 0.5888
ornithine [1]: 0.3712
phosphoenolpyruvate [1]: 0.6171
pyruvate [1]: 0.7724
ribose-phosphate [1]: 0.6092
sarcosine/alanine [1]: 0.1752
sn-glycerol-3-phosphate [1]: 0.5669
succinate/methylmalonic acid [1]: 0.1316
uridine [1]: 0.4569
xanthosine [1]: 0.7187

EC50 (P. falciparum): 168 nM
Structure (SMILES): COc1ccc(C=C2SC(=N)N(c3ccccc3OC)C2=O)cc1 [MMV666691]
Acetyllysine [1]: -0.06113
N-acetyl-L-ornithine [1]: -0.04858
N-carbamoyl-L-aspartate [1]: 3.121
NADPH [1]: 0.04672
dAMP [1]: -0.1913
dCMP [1]: 0.1375
dTDP [1]: -0.4485
dTMP [1]: -0.268
dTTP [1]: -0.128
dihydroorotate [1]: 3.607
orotate [1]: -0.9141
DLH [1]: 0.157
DLS/SDL/SID [1]: 0.06441
PD [1]: 0.6447
PEE [1]: 0.2278
PVNF [1]: 0.06954
3-phosphoglycerate [1]: -0.08972
ADP-D-glucose [1]: 0.2678
ATP [1]: 0.4861
CDP [1]: 0.2338
D-sedoheptulose-1/7-phosphate [1]: 0.4395
FAD [1]: 0.4218
GMP [1]: -0.5619
NAD+ [1]: 0.2782
NADP+ [1]: 0.1223
Octoluse Bisphosphate [1]: 0.2088
Pyroglutamic acid [1]: -0.1274
UDP-D-glucose [1]: 0.2576
UDP-D-glucuronate [1]: 0.2671
UDP-N-acetyl-glucosamine [1]: 0.2054
UDP [1]: -0.5559
UMP [1]: -0.8809
UTP [1]: -0.652
a-ketoglutarate [1]: -0.2164
citrate/isocitrate [1]: -0.06979
cytidine [1]: 0.2052
dATP [1]: 0.5778
dGMP/AMP [1]: -0.07557
fumarate [1]: 0.7045
glucose-1/6-phosphate [1]: 0.363
glycerate [1]: 0.3396
guanine [1]: 0.3707
guanosine [1]: 0.4982
hypoxanthine [1]: 0.09969
indole [1]: 0.002472
inosine [1]: 0.382
2_3-Diphosphoglyceric acid [1]: 0.1853
4-phosphopantothenate [1]: -0.1622
6-phospho-D-gluconate [1]: 0.4512
FMN [1]: 0.2558
IMP [1]: 0.07363
Pyrophosphate [1]: 0.16
Sedoheptoluse bisphosphate [1]: 0.2481
cyclic-AMP [1]: 0.2139
glutathione disulfide [1]: 0.5647
lactate [1]: 0.06184
myo-inositol [1]: 0.08809
nicotinate [1]: 0.1482
ornithine [1]: 0.1318
phosphoenolpyruvate [1]: -0.1506
pyruvate [1]: -0.3002
ribose-phosphate [1]: 0.1031
sarcosine/alanine [1]: 0.4028
sn-glycerol-3-phosphate [1]: 0.3221
succinate/methylmalonic acid [1]: 0.3253
uridine [1]: -0.3469
xanthosine [1]: 0.6937
